Activity calls are given as the source filed them. For most assays here, no stated cut-off is given here; in the data, actives have a measured EC50 and inactives only a lower limit.
Key:
[1] = target: Cytochrome P450 2C9 (Homo sapiens, UniProt P11712)
[2] = target: Cytochrome P450 3A4 (Homo sapiens, UniProt P08684);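 further: CYP3A4 tested as one member of a cytochrome P450 panel screen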
[3] = cytotoxicity toward NIH3T3 fibroblasts, dose response, counter-screen, cell-based, ATP luminescence, mouse fibroblasts (AID 2010); assay type: functional;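 further: cells exposed to compound for about 90 hours before reading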
[4] = inhibitors of intracellular T. cruzi replication, confirmation, NIH3T3 host cells, beta-gal luminescence (AID 2044); assay type: functional, cell-based;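 further: intracellular parasites grown in NIH/3T3 mouse fibroblasts as host cells; luminescent beta-galactosidase reporter signal from transgenic T. cruzi replicating inside host cells; inhibitors lower the luminescence signal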
[5] = Luminescence Cell-Based Dose Confirmation HTS to Identify Activators of 5'UTR Stem-Loop Driven Alpha-Synuclein mRNA Translation in H4 Neuroglioblastoma Cells. [Related pubchem assays: 1829 (Project Summary), 1814 (Primary HTS)]; assay type: functional
[6] = test system: H4; experiment: Luminescence Cell-Based Dose Response HTS to Identify Activators of 5'UTR Stem-Loop Driven Prion Protein mRNA Translation in H4 Neuroglioblastoma Cells. [Related pubchem assays: 1829 (Project Summary), 1814 (Primary HTS)]; assay type: functional; conditions: Homo sapiens
[7] = Luminescence Cell-Based Dose Response HTS to Identify Activators of Luciferase Translation or Activity in H4 […] Cells. [Related pubchem assays: 1829 (Project Summary), 1814 (Primary HTS)]; assay type: functional
[8] = test system: Streptococcus; experiment: Group A Streptococcus viability loss, dose response, counter-screen for streptokinase expression inhibitor project, luminescence, BacTiterGlo (AID 1915); assay type: functional, organism-based;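 further: potency for reduction of bacterial viability or growth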
[9] = test system: Streptococcus sp. 'group A'; experiment: growth inhibition of control SK(-) GAS strain, dose response, counter-screen for streptokinase expression inhibitor project, luminescence, kanamycin, BacTiterGlo, confirmation (AID 1900); assay type: functional, organism-based
[10] = target: T1, Corticotropin-releasing factor receptor 2/Corticotropin-releasing factor-binding protein (Homo sapiens, UniProt P24387+Q13324); experiment: activators of CRF receptor 2 with binding protein – uHTS hits, confirmation (AID 602473); assay type: functional; conditions: read-out: EC50_Mean
T1 sequence (Q13324 whole entry): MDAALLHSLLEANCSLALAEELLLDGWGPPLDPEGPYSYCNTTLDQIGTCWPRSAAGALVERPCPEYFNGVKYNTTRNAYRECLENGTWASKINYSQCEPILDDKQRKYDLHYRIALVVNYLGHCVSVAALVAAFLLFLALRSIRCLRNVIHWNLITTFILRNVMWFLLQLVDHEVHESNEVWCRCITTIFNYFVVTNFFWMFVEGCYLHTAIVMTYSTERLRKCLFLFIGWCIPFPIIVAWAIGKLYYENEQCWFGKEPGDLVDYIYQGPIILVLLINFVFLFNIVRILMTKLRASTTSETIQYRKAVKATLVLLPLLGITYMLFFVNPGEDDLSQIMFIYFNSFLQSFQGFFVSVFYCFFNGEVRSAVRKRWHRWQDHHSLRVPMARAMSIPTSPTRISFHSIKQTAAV
T1 sequence (P24387 whole entry): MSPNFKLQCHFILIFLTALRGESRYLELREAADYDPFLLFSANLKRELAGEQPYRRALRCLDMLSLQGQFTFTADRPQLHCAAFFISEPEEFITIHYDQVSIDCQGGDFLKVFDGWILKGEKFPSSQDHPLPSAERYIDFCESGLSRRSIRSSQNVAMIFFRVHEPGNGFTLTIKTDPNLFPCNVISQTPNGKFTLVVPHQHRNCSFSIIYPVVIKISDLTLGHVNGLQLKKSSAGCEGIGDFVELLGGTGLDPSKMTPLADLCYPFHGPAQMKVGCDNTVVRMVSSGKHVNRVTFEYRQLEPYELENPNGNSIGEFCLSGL

Sequence of Cytochrome P450 3A4 (P08684 whole entry): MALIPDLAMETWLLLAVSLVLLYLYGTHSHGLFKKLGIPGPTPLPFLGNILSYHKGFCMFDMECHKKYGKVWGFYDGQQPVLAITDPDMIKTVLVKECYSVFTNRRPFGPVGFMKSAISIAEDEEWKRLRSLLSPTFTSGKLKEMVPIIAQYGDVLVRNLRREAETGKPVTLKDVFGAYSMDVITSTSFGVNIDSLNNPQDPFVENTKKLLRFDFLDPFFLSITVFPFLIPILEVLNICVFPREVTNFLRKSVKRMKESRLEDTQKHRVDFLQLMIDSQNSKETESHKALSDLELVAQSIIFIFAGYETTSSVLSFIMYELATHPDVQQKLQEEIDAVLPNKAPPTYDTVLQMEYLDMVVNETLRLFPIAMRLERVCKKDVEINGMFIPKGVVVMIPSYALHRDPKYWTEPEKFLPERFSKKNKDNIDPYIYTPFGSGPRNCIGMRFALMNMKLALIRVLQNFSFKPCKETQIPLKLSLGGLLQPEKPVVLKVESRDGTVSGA
Sequence of Cytochrome P450 2C9 (P11712 whole entry): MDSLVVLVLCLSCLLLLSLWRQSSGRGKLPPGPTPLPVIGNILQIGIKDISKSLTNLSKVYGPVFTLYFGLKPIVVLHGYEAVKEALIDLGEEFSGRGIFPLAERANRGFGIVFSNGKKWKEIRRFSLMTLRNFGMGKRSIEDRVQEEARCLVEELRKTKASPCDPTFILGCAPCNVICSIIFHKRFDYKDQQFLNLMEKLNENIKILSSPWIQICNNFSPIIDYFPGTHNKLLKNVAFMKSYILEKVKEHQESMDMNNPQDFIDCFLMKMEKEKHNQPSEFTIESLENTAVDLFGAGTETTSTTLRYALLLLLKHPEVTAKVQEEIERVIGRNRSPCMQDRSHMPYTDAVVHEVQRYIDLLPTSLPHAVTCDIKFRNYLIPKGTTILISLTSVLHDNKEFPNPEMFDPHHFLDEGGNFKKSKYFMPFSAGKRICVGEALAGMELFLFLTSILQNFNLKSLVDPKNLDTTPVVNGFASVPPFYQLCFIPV

Compound | EC50 [5] | EC50 [6] | EC50 [7] | further results
COc1ccc(N=C(S)Nc2ncccc2C)c(OC)c1 |  |  |  | AC50 [1]: 20 µM (inconclusive); AC50 [2]: 39.8 µM (inconclusive)
Cc1cccc2nc(-c3ccccc3)nc(N3CCC(O)(c4ccc(Cl)cc4)CC3)c12 |  |  |  | EC50 [3]: > 60 µM (not active); EC50 [4]: 0.301 µM (active)
Cc1nc(S(=O)(=O)N(C)c2ccccc2)c(C#N)c(C)c1Cl |  |  |  | AC50 [1]: 17.8 µM (inconclusive)
Nc1nonc1-c1noc(CCCN2C(=O)c3ccccc3C2=O)n1 | 12.9 µM (active) | 15.7 µM (active) | 12.1 µM (active) | 
CC(c1ccon1)N(C)Cc1c[nH]nc1-c1ccc(-c2ccccc2)cc1 (centres undefined) | > 120 µM (not active) | > 120 µM (not active) | 30.5 µM (active) | 
CCCCn1nc(C(=O)Nc2nc3c(s2)CCCC3)c2ccccc2c1=O |  |  |  | EC50 [3]: > 60 µM (inconclusive); EC50 [4]: 1.73 µM (active)
CCc1nnc(NC(=O)/C=C/c2ccco2)s1 | 13.7 µM (active) | 6.44 µM (active) | 54.5 µM (active) | 
CC1CCN(CC(=O)Nc2cccc([N+](=O)[O-])c2)CC1 |  |  |  | AC50 [1]: 15.8 µM (inconclusive)
COc1cc(/C=C/C(=O)OCC(=O)c2c(N)n(C)c(=O)n(C)c2=O)ccc1OCC#N |  |  |  | EC50 [8]: 4.1 µM (active); EC50 [9]: 7.23 µM (active)
Cc1nn(C(C)C(=O)N2CCc3ccccc32)c(C)c1[N+](=O)[O-] (centres undefined) |  |  |  | AC50 [2]: 17.8 µM (inconclusive)
O=C(Nc1ccc2c(c1)OCO2)N1CCN(c2ccccc2)CC1 | > 120 µM (not active) | 10.3 µM (active) | 16.2 µM (active) | 
CS(=O)(=O)N(Cc1ccccc1)c1ccc(C(=O)N2CCOCC2)cc1 |  |  |  | EC50 [10]: > 53 µM (inactive)
Cc1ccc(OCCn2cnc3ccccc3c2=O)c([N+](=O)[O-])c1 | 0.247 µM (active) |  | 2.44 µM (active) | 
C=CCN=C(S)N1CCN(c2ncc3c(=O)c(C(=O)O)cn(CC)c3n2)CC1 |  |  |  | AC50 [1]: 0.224 µM (inconclusive)
CCOC(=O)Cc1cc(-c2ccc(OC)cc2)nc2ccc3ccccc3c12 | 9.64 µM (active) | 15.6 µM (active) | 12.6 µM (active) | 
COc1ccc(C(=N)NOC(=O)c2c(-c3ccccc3Cl)noc2C)cc1OC |  |  |  | EC50 [3]: 10.7 µM (active); EC50 [4]: 1.49 µM (active)
COC(=O)c1ccc(N2OC3(C)C=CC2CC3)cc1 (centres undefined) | 9.96 µM (active) | 13.5 µM (active) | 5.16 µM (active) | 
O=C(CCOc1ccccc1)Nc1ccccc1 |  |  |  | AC50 [1]: 1 µM (inconclusive); AC50 [2]: 22.4 µM (inconclusive)
CCOC(=O)C1CCN(c2nnc(N3CCCC3=O)s2)CC1 | 3.42 µM (active) | 33 µM (active) | 6.58 µM (active) | 
Cc1ccc(CN2C(=O)N/C(=C/c3cc(C)n(-c4ccccn4)c3C)C2=O)cc1 | 11.9 µM (active) | > 120 µM (not active) | 7.26 µM (active) | 
CCOC(=O)c1c(NC(=O)CSc2nnc(-c3ccncc3)n2Cc2ccco2)sc(C)c1C |  |  |  | EC50 [3]: > 60 µM (not active); EC50 [4]: 2.9 µM (active)
CN(CCNC(=O)C1CC(=O)N(c2ccc(F)c(Cl)c2)C1)Cc1ccccc1 (centres undefined) |  |  |  | EC50 [3]: > 60 µM (not active); EC50 [4]: 0.22 µM (active)
Cc1ncc(CC(=O)n2cc(C(=O)c3cc(Cl)ccc3O)cn2)s1 | 16.5 µM (active) | 40.2 µM (active) | > 120 µM (not active) | 
CC1CCC(=C(C#N)c2nc(-c3cc4ccccc4oc3=O)cs2)CC1 (centres undefined) |  |  | 0.106 µM (active) | 
Cc1ccc(S(=O)(=O)Nc2ccc(N3CCN(C)CC3)nc2)cc1 |  |  |  | EC50 [3]: > 60 µM (not active); EC50 [4]: 1.26 µM (active)

Compound | EC50 [5] | EC50 [6] | EC50 [7] | further results
COc1ccc(-c2cc(-c3ccccc3)c(C#N)c(SCC(=O)Nc3ncc(C)s3)n2)cc1 |  |  |  | EC50 [3]: > 60 µM (inconclusive); EC50 [4]: > 60 µM (not active)
Cc1ccc(N2CCN(c3ccc(C)cc3)C2c2cccnc2)cc1 |  |  |  | EC50 [3]: > 60 µM (not active); EC50 [4]: 0.768 µM (active)
CC1(C)CC(=O)c2cc(NC=C(C(=O)c3ccccc3)C(=O)c3ccccc3)c(=O)oc2C1 | 15.6 µM (active) | > 120 µM (not active) | > 60 µM (not active) | 
Nn1c(CSc2ccccn2)nc2ccccc2c1=O | 42.9 µM (active) | 23.3 µM (active) | 35.2 µM (active) | 
CN(C)c1ccc(-c2nccc(Nc3ccc(F)cc3)n2)cc1 |  |  |  | AC50 [1]: 0.631 µM (inconclusive)
Cc1cccc(CCN2CCN=C2Nc2ccccc2)c1 |  |  |  | EC50 [10]: 14 µM (active)
O=C(c1c[nH]cc1-c1ccccc1)c1cccc2ccccc12 |  |  |  | EC50 [3]: 4.49 µM (active); EC50 [4]: 1.93 µM (active)
Sc1ncnc2scc(-c3ccc(Cl)cc3)c12 |  |  |  | EC50 [8]: 47.4 µM (active); EC50 [9]: 13.1 µM (active)
O=C(Nc1ccc2c[nH]nc2c1)c1ccc(Cl)c(S(=O)(=O)N2CCOCC2)c1 | 6.56 µM (active) | 27.6 µM (active) | 42.2 µM (active) | 
COc1ccc(C(CNc2ccc(S(=O)(=O)N3CCCC3)cc2[N+](=O)[O-])N2CCCC2)cc1 (centres undefined) |  |  |  | EC50 [3]: 31.8 µM (active); EC50 [4]: 0.843 µM (active)
CC(C)CC(=O)Nc1ccc(C(=O)COC(=O)Cc2n[nH]c(=O)c3ccccc23)cc1 |  |  |  | EC50 [10]: 12.4 µM (active)
O=C(CCN1C(=O)S/C(=C\C=C\c2ccccc2)C1=O)Nc1ccc(O)cc1 |  | 8.5 µM (active) | 0.155 µM (active) | 
COc1ccc(C(=O)C2=C(O)C(=O)N(c3cc(C)on3)C2c2ccc(OC)c(OC)c2)cc1OC (centres undefined) |  |  |  | AC50 [2]: 22.4 µM (inconclusive)
COc1ccc2nc(N3CCN(C(=O)C4COc5ccccc5O4)CC3)sc2c1 (centres undefined) | 4.45 µM (active) | 12.8 µM (active) | 30.7 µM (active) | 
S=C(NCc1ccco1)N1CCN(Cc2ccco2)CC1 |  |  |  | AC50 [1]: 14.1 µM (inconclusive)
CC1=C(C#N)C(Nc2ccc(Cl)cn2)(C(F)(F)F)C(=O)N1 (centres undefined) |  |  |  | AC50 [2]: 15.8 µM (inconclusive)
CCN(CC)c1nc(C=Cc2ccc(N(C)C)cc2)c2nccnc2n1 |  |  |  | EC50 [10]: 2.56 µM (active)
O=C(COc1ccc(F)cc1)N(Cc1cccs1)C1CCS(=O)(=O)C1 (centres undefined) |  |  |  | EC50 [10]: > 53 µM (inactive)
C/C(=N\NC(=S)Nc1cccc(C)c1)c1ccco1 |  |  |  | EC50 [3]: > 60 µM (not active); EC50 [4]: 2.8 µM (active)
O=C(O)c1cc2c(cc1S(=O)(=O)O)[C@H]1[C@@H](C3[C@H]2[C@@]2(Cl)C(Cl)=C(Cl)[C@@]3(Cl)C2(Cl)Cl)[C@]2(Cl)C(Cl)=C(Cl)[C@]1(Cl)C2(Cl)Cl (some centres undefined) |  |  |  | AC50 [2]: 3.16 µM (inconclusive)
COc1ccc(-c2c/c(=N/c3c(C)n(C)n(-c4ccccc4)c3=O)c3ccccc3o2)cc1 | 11.1 µM (active) | 2.02 µM (active) | 11.1 µM (active) | 
COC(=O)c1ccc(-c2ccc(/C=N/N3C(=O)C4C5C=CC(CC5)C4C3=O)o2)cc1 (centres undefined) | 6.71 µM (active) | 18.9 µM (active) | 19.5 µM (active) | 
COc1ccc(/C=C(\NC(=O)c2ccccc2)C(=O)N/N=C/c2ccncc2)cc1 |  |  |  | AC50 [1]: 12.6 µM (active)
CC(=N)/C(C#N)=C(/O)CSc1nnc(Nc2cccc(C)c2)s1 | 10.1 µM (active) | > 120 µM (not active) | 45.1 µM (active) | 
COc1cc(C=C(C#N)C#N)cc(O)c1O |  |  |  | AC50 [2]: 10 µM (inconclusive)
